{"source": "paper PMC5920559", "about": "(Journal of medicinal chemistry, 2017)", "key": {"[1]": {"system": "LC3-I/II and p62 in HEK293 cells", "experiment": "autophagy markers immunoblot", "type": "cell-based", "settings": "8 h"}, "[2]": {"system": "SMN2-luc reporter cell line", "experiment": "SMN2-luciferase", "type": "cell-based", "settings": "24 h"}, "SMN-luciferase mRNA [3]": {"system": "SMN-luciferase mRNA", "settings": "cited from earlier work"}, "[4]": {"system": "human SMN protein in 3813T fibroblasts", "settings": "cited from earlier work"}, "[5]": {"target": "endogenous SMN protein in HEK293 cells (Homo sapiens, UniProt Q16637)", "sequence (Q16637 whole entry)": "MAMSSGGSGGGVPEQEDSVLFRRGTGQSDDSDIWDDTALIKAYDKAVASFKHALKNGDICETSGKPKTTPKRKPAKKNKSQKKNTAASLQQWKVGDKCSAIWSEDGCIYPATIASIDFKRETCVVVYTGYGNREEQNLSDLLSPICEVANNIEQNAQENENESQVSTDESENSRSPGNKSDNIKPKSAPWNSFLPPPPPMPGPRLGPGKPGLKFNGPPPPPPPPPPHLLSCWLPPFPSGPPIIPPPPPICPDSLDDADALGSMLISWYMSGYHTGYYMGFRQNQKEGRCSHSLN", "experiment": "pulse-chase SMN protein half-life", "type": "cell-based", "settings": "10 µM"}, "SMN-luc fusion": {"target": "SMN-luc fusion (UniProt P08659+Q16637)", "experiment": "SMN-luc protein stability with cycloheximide", "type": "cell-based", "settings": "with cycloheximide 10 µM, compound 10 µM"}, "severe SMA mice (SMNΔ7)": {"system": "severe SMA mice (SMNΔ7)", "settings": "severe SMA mice (SMNΔ7) printed for 5; cited from earlier work"}, "mouse pharmacokinetics": {"experiment": "mouse pharmacokinetics", "type": "in vivo", "settings": "for Cmax: plasma, plasma Cmax"}, "[6]": {"system": "renilla luciferase protein", "experiment": "Renilla-luc protein stability with cycloheximide", "settings": "with cycloheximide 10 µM, compound 10 µM"}, "SV40 reporter cells": {"system": "SV40 reporter cells", "experiment": "SV40 promoter luciferase counterscreen", "type": "cell-based"}, "[7]": {"system": "p53 and p21-Cip1 in HEK293 cells", "experiment": "levels of short-lived proteins p53 and p21", "type": "cell-based", "settings": "alone or after cycloheximide"}, "SH5Y5Y cells": {"system": "SH5Y5Y cells", "experiment": "cell viability", "type": "cell-based", "settings": "up to 100× its EC50, 48 h"}, "58 kinase panel": {"system": "58 kinase panel", "experiment": "58 kinase panel", "type": "biochemical", "settings": "10 µM"}, "[8]": {"experiment": "plasma protein binding, human plasma", "type": "in vitro ADME"}, "SMN2 reporter cells": {"system": "SMN2 reporter cells", "experiment": "constant ratio combination experiment in SMN2 reporter cells", "type": "cell-based"}, "recombinant luciferase": {"target": "recombinant luciferase (Photinus pyralis, UniProt P08659)", "sequence (P08659 whole entry)": "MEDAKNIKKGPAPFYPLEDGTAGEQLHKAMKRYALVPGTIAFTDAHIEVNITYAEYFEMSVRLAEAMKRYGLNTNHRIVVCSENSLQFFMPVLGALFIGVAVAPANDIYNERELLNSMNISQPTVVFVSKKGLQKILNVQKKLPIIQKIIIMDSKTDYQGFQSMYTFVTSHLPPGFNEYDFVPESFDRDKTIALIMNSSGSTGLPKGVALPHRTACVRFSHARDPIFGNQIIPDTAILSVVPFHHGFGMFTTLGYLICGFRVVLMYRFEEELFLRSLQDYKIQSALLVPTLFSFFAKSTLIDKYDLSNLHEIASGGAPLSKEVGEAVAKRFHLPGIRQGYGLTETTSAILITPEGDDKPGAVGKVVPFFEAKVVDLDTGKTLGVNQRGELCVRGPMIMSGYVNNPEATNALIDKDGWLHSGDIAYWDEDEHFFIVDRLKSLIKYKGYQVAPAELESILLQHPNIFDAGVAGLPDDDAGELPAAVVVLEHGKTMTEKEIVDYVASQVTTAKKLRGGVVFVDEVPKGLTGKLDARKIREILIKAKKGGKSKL", "experiment": "recombinant luciferase activity", "type": "biochemical"}, "[9]": {"system": "64 target broad panel (e.g., GPCRs and ion channels)", "experiment": "64 target broad panel screen", "settings": "10 µM"}, "[10]": {"system": "MBP-HPV-16 E6 mediated degradation of p53", "experiment": "HPV16 E6 mediated p53 in vitro degradation assay", "type": "biochemical", "settings": "preincubation of rabbit reticulocyte lysates, 30 min"}, "SMN-luciferase mRNA [11]": {"system": "SMN-luciferase mRNA", "experiment": "qRT-PCR of SMN-luciferase mRNA", "type": "cell-based", "settings": "1, 10 µM, 24 h"}, "[12]": {"system": "polyubiquitinated proteins in HEK293 cells", "experiment": "polyubiquitinated proteins immunoblot", "type": "cell-based", "settings": "for effect on basal level of polyubiquitinated proteins: 1 and 10 µM"}, "acid stability in HCl": {"experiment": "acid stability in HCl", "type": "physicochemical", "settings": "0.1 and 1 N HCL, 37 °C, each time point 1, 2, 4, 6, 24 h, LCMS"}, "[13]": {"experiment": "plasma protein binding, mouse plasma", "type": "in vitro ADME"}, "[14]": {"experiment": "kinetic solubility at pH 7.4", "type": "physicochemical", "settings": "aqueous medium (buffer not named)"}, "hERG": {"target": "hERG (Homo sapiens, UniProt Q12809)", "sequence (Q12809 whole entry)": "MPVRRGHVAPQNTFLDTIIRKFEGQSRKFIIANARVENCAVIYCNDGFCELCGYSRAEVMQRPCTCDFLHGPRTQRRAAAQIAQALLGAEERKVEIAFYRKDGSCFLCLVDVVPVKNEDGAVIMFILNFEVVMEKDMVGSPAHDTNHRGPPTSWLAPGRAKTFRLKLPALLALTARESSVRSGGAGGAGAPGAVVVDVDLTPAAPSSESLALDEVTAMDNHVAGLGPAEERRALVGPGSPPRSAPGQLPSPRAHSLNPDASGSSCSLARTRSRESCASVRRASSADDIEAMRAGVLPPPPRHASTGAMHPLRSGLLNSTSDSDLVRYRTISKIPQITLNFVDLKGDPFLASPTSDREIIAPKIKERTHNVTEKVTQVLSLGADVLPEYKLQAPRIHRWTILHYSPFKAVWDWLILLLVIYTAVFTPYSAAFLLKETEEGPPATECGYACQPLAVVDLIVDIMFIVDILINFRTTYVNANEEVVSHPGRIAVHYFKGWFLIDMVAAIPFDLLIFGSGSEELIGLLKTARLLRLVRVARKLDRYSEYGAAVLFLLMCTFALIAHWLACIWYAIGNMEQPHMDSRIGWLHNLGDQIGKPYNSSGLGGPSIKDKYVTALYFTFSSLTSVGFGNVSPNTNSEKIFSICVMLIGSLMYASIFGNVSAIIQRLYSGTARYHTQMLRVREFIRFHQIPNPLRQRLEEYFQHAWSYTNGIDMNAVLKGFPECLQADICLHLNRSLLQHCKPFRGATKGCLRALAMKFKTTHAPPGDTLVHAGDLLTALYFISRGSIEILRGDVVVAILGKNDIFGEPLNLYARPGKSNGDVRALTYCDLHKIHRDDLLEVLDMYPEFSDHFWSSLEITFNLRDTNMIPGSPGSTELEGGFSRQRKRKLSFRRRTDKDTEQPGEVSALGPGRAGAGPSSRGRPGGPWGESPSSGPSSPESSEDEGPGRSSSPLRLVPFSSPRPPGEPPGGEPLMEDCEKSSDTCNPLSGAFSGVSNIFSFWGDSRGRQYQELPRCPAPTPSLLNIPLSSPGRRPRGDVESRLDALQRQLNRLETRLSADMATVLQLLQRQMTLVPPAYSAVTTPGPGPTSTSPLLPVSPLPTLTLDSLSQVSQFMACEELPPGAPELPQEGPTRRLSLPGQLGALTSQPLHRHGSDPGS", "experiment": "hERG safety profiling", "settings": "10 µM"}}, "note": "Where two headings read alike, the source gives them in different places. Peptide text beside a SMILES is read from it. * marks the point of attachment. Cbz = O=C(OCc1ccccc1)*"}
{"smiles": "CCN(CC)CCCC(C)Nc1ccnc2cc(Cl)ccc12", "note": "(stereo not drawn) [Chloroquine, reference compound]", "values": [{"measurement": "effect on p62 and LC-3 II protein levels", "setting": "[1]", "value": "increased"}]}
{"smiles": "CC(C)c1cc(C(=O)Nc2ccc(F)c(Cl)c2)no1", "note": "[Compound 4, N-(3-Chloro-4-fluorophenyl)-5-isopropylisoxazole-3-carboxamide]", "values": [{"measurement": "EC50", "setting": "[2]", "value": 1.8, "unit": "µM"}, {"measurement": "effect on SMN mRNA expression and exon 7 inclusion", "setting": "SMN-luciferase mRNA [3]", "value": "did not alter SMN mRNA expression or exon 7 inclusion"}, {"measurement": "SMN expression in SMA-derived fibroblast", "setting": "[4]", "value": "promoted increases"}, {"measurement": "effect on SMN protein half-life", "setting": "[5]", "value": "increased"}, {"measurement": "stabilization of SMN-luc fusion", "setting": "SMN-luc fusion", "value": "stabilized"}, {"measurement": "in vivo activity", "setting": "severe SMA mice (SMNΔ7)", "value": "inactive"}]}
{"smiles": "CC(C)c1cc(C(=O)Nc2ccccn2)no1", "note": "[Compound 4m, 5-Isopropyl-N-(pyridin-2-yl)isoxazole-3-carboxamide]", "values": [{"measurement": "brain Cmax", "setting": "mouse pharmacokinetics; 20 mpk ip, 20 mg/kg", "value": 6, "unit": "ng/mL"}, {"measurement": "plasma Cmax", "setting": "mouse pharmacokinetics; 20 mpk ip, 20 mg/kg", "value": 3, "unit": "ng/mL"}, {"measurement": "plasma and brain levels after 30 min", "setting": "mouse pharmacokinetics; ip 20 mg/kg", "value": "below the levels of detection"}]}
{"smiles": "COc1cc2c(c(OC)c1OC)C(c1cc(Br)ccc1F)CC(=O)N2", "note": "(stereo not drawn) [Compound 5, reference compound]", "values": [{"measurement": "stabilization of renilla luciferase protein", "setting": "[6]", "value": "Neither"}, {"measurement": "stabilization of SMN-luc fusion", "setting": "SMN-luc fusion", "value": "Neither"}, {"measurement": "in vivo activity", "setting": "severe SMA mice (SMNΔ7)", "value": "increases SMN protein and the survival"}]}
{"smiles": "O=C(Nc1ncc(C2CCC2)s1)c1ccc(F)c(Cl)c1", "note": "[Compound 26, 3-Chloro-N-(5-cyclobutylthiazol-2-yl)-4-fluorobenzamide]", "values": [{"measurement": "Emax", "setting": "[2]; read-out: % Activation", "value": "100 ± 16", "unit": "%"}]}
{"smiles": "O=C(Nc1ncc(C2(O)CCC2)s1)c1ccc(F)c(Cl)c1", "note": "[Compound 27, 3-Chloro-4-fluoro-N-(5-(1-hydroxycyclobutyl)thiazol-2-yl)-benzamide]", "values": [{"measurement": "effect on luc levels expressed from a minimal SV40 promoter", "setting": "SV40 reporter cells", "value": "minimal effects"}, {"measurement": "effect on cellular levels of p53 and p21-Cip1", "setting": "[7]", "value": "did not alter"}, {"measurement": "Cmax", "setting": "mouse pharmacokinetics; ip, 20 mg/kg, ip 20 mg/kg", "value": 23, "unit": "µM"}, {"measurement": "Cmax", "setting": "mouse pharmacokinetics; po, 20 mg/kg, adult mice, orally 20 mg/kg", "value": 0.9, "unit": "µM"}, {"measurement": "effect on viability of SH5Y5Y cells", "setting": "SH5Y5Y cells", "value": "no effect"}, {"measurement": "inhibition in 58 kinase panel", "setting": "58 kinase panel", "value": "< 50", "unit": "%"}, {"measurement": "free fraction in human plasma", "setting": "[8]", "value": 3.5, "unit": "% free"}, {"measurement": "SMN2-luc level on combined exposure with 4", "setting": "SMN2 reporter cells; in combination with 4, 24 h", "value": "did not result in additive or above additive levels"}, {"measurement": "SMN2-luc level on combined exposure with 5", "setting": "SMN2 reporter cells; in combination with transcriptional activator 5, 24 h", "value": "an activation above the theoretical additive was observed"}, {"measurement": "effect on recombinant luciferase protein in vitro", "setting": "recombinant luciferase", "value": "minimal effects"}, {"measurement": "inhibition of 64 other targets", "setting": "[9]", "value": "< 50", "unit": "%"}, {"measurement": "inhibition of MBP-HPV-16 E6 mediated degradation of p53", "setting": "[10]", "value": "no inhibition"}, {"measurement": "effect on SMN mRNA expression and exon 7 inclusion", "setting": "SMN-luciferase mRNA [11]", "value": "did not alter SMN mRNA expression or exon 7 inclusion"}, {"measurement": "effect on basal level of polyubiquitinated proteins", "setting": "[12]", "value": "no effect"}, {"measurement": "degradation in acid", "setting": "acid stability in HCl", "value": "less than 5%"}, {"measurement": "free fraction in mouse plasma", "setting": "[13]", "value": 4.7, "unit": "% free"}, {"measurement": "solubility", "setting": "[14]", "value": "~10", "unit": "µg/mL"}, {"measurement": "inhibition of hERG activity", "setting": "hERG", "value": "< 50", "unit": "%"}, {"measurement": "stabilization of SMN-luc fusion", "setting": "SMN-luc fusion", "value": "stabilized"}, {"measurement": "effect on p62 and LC-3 II protein levels", "setting": "[1]", "value": "did not alter"}]}
{"smiles": "CC(C)C[C@@H](C=O)NC(=O)[C@H](CC(C)C)NC(=O)[C@H](CC(C)C)NC(=O)OCc1ccccc1", "note": "[MG-132] (Cbz-Leu-Leu-Leu-aldehyde)", "values": [{"measurement": "effect on basal level of polyubiquitinated proteins", "setting": "[12]", "value": "increased"}, {"measurement": "inhibition of cycloheximide-induced reduction of polyubiquitinated proteins", "setting": "[12]; 2 h pretreatment then cycloheximide 10 µM", "value": "inhibited"}, {"measurement": "effect on SMN protein half-life", "setting": "[5]", "value": "increased"}]}
{"smiles": "O=C(CCCCCCC(=O)Nc1ccccc1)NO", "note": "[SAHA, suberoylanilide hydroxamic acid, reference compound]", "values": [{"measurement": "stabilization of renilla luciferase protein", "setting": "[6]", "value": "Neither"}, {"measurement": "stabilization of SMN-luc fusion", "setting": "SMN-luc fusion", "value": "Neither"}]}
